Data on two substances can be found in patent US20130078718A1, “CONVERSION OF VASCULAR ENDOTHELIAL CELLS INTO MULTIPOTENT STEM-LIKE CELLS” (PRESIDENT AND FELLOWS OF HARVARD COLLEGE, priority 2010, published 2013).

Experiment [1] has as its system Human umbilical vein endothelial cells (HUVECs) and human cutaneous microvascular endothelial cells (HCMECs). The experiment is described as follows: Endothelial-mesenchymal transition (EndMT) in endothelial cells: morphology, marker expression by immunoblotting, flow cytometry, real-time PCR, ELISA. The format is cell-based. A general note: Immunoblotting shows a protein as a band on a membrane.

Another experiment has as its system HUVEC and HCMEC. The experiment is described as follows: Mesenchymal stem cell marker expression in treated endothelial cells. The format is cell-based, human. To be noted: 10 ng/mL, 48 hours; for expression of mesenchymal stem cell genes CD10, CD13, CD44, CD73, CD90, CD120a, CD124 (real-time quantitative PCR): compared to control cells. The protocol:
(§1) Human umbilical vein endothelial cells (HUVEC) and human cutaneous microvascular endothelial cells (HCMEC) were provided by J. Bischoff (Children's Hospital Boston) and isolated as previously described^35. […] Cells were grown in culture using EGM-2 medium (Cambrex), containing 10% FBS and 1% Penicillin/Streptomycin, followed by human endothelial serum free medium (Gibco) 24 hours prior to all experimental conditions. Bone marrow derived mesenchymal stem cells (ScienCell Research Laboratories) were grown in mesenchymal stem cell medium (ScienCell Research Laboratories). Human corneal fibroblasts, from a stock initially provided by E. Hay (Harvard Medical School), were grown in RPMI medium, containing 10% FBS and 1% Penicillin/Streptomycin. Primary human osteoblasts, chondrocytes, and adipocytes and their respective growth media were obtained from Cell Applications Inc. Recombinant TGF-β2 and BMP4 proteins (R&D Systems) were added to the serum free culture medium for all relevant experiments at a concentration of 10 ng/mL. Cells were treated for 15 minutes to assess ALK2 phosphorylation, 1 hour to measure Smad5 phosphorylation, or 48 hours to induce EndMT. All experiments for this study were performed at minimum in triplicate.
(§2) Immunoassays were performed using the following antibodies at concentrations (and using protocols) recommended by the respective manufacturers: FSP-1 (H00006275-M01; Stressgen), ALK2 (sc-5671), Phospho-tyrosine (sc-7020), VE-cadherin (sc-6458), TIE2 (sc-324, sc-9026), STRO-1 (sc-47733), CD44 (sc-71220), CD90 (sc-9163), Osteocalcin (sc-74495, sc-23790), SOX9 (sc-20095), COL2A1 (sc-59958, sc-52658), PPARγ2 (sc-22022; Santa Cruz Biotechnology), vWF (ab68545; Abcam); His (A00174; GenScript); α-SMA (A5228), β-actin (A1978; Sigma-Aldrich). Samples were run with Criterion precast SDS-PAGE Gels (Bio-Rad). HRP-conjugated IgG TrueBlot reagents (18-8814, 18-8816, 18-8817; eBioscience) were used at a dilution of 1:1000. TrueBlot IgG beads (eBioscience) were used for immunoprecipitation experiments. Alexa Fluor secondary antibodies (Invitrogen) were used at a dilution of 1:200. Images were acquired using a Nikon 80i fluorescence microscope.
(§3) Endothelial cells were stained in suspension using antibodies against TIE2, FSP-1, STRO-1, and His (described above) and the protocols provided by their respective manufacturer. Flow cytometry was performed at the Harvard Medical School, Department of Pathology flow cytometry core facility using a FACSDCalibur (BD Biosciences) cell sorter isolating 30,000 cells per sample.
(§4) RNA extractions were performed using the RNeasy Mini kit (Qiagen) and protocol. RNA samples were submitted to a core facility (Biopolymers Facility, Department of Genetics, Harvard Medical School) where real-time PCR experiments were conducted using the Syber Green PCR system (ABI) on an ABI 7500 cycler, with 40 cycles per sample. Cycling temperatures were as follows: denaturing 95° C.; annealing 60° C.; extension, 70° C. The following primers (Integrated DNA Technologies) were used: […]
(§5) Human umbilical vein endothelial cells (HUVEC) and human cutaneous microvascular endothelial cells (HCMEC) isolated as previously described (35). […] Cells were grown in culture using EGM-2 medium (Cambrex), containing 10% FBS and 1% Penicillin/Streptomycin, followed by human endothelial serum free medium (Gibco) 24 h prior to all experimental conditions.

Another experiment has as its system Smad2 and Smad5. The experiment is described as follows: Smad phosphorylation by immunoblotting. Format: cell-based, human. Particulars: for Smad5 phosphorylation: 10 ng/mL, 1 hour; for phosphorylation of Smad2 and Smad5 (immunoblotting): HUVECs, 10 ng ml−1, 1 h. The protocol: as §1, §2
Human umbilical vein endothelial cells (HUVEC) and human cutaneous microvascular endothelial cells (HCMEC) isolated as previously described (35). […] Cells were grown in culture using EGM-2 medium (Cambrex), containing 10% FBS and 1% Penicillin/Streptomycin, followed by human endothelial serum free medium (Gibco) 24 h prior to all experimental conditions. Bone marrow derived mesenchymal stem cells (ScienCell Research Laboratories) were grown in mesenchymal stem cell medium (ScienCell Research Laboratories). Bone marrow derived hematopoietic stem cells (Lonza) were grown in HPGM medium (Lonza). Human corneal fibroblasts, from a stock provided by Dr. Elizabeth Hay (Harvard Medical School), were grown in RPMI medium, containing 10% FBS and 1% Penicillin/Streptomycin. Primary human osteoblasts, chondrocytes, and adipocytes and their respective growth media were obtained from Cell Applications, Inc. Recombinant TGF-β2, BMP4, and BMP7 proteins (R&D Systems) were added to the serum free culture medium for all relevant experiments at a concentration of 10 ng ml^−1. Recombinant VEGF (R&D Systems) was added to cultures at a concentration of 25 ng ml^−1. Dorsomorphin (Sigma-Aldrich) was added to cultures at a concentration of 5 μM.

The next experiment relates to HUVECs and HCMECs. Description: In vivo multipotency: polylactic acid scaffolds with pre-treated endothelial cells implanted into nude mice. Details: species or system immunodeficient nude mice. To be noted: for co-expression of Qtracker label with osteocalcin, SOX9 or adiponectin in implants (immunohistochemistry): cells pre-labeled with quantum dots, pre-treated, implanted 6 weeks; for bone, cartilage or fat products in implanted scaffolds (alizarin red, alcian blue, oil red O): cells pre-treated, differentiation medium injected locally every 72 h for 6 weeks. The protocol:
Cells were grown in StemPro osteogenic, chondrogenic, or adipogenic culture medium (Invitrogen). Alkaline phosphatase staining was performed using the alkaline phosphatase kit and protocol (Sigma-Aldrich) on cultures grown in osteogenic medium for 7 d to detect osteoblasts. Alizarin Red (Sigma-Aldrich) staining was performed for 30 min on cultures grown in osteogenic medium for 21 d to detect matrix calcification. Alcian Blue (Sigma) staining was used to stain chondrocyte proteoglycans for 5 minutes in cultures grown in chondrogenic medium for 14 d. Oil Red O (Sigma-Aldrich) staining was performed for 15 min on cultures grown in adipogenic medium for 7 d. For in vivo analysis, endothelial cells were labeled with fluorescent quantum dots using the Qtracker 525 Cell Labeling Kit (Invitrogen). Cells were treated in culture to induce EndMT then absorbed into OPLA polylactic acid scaffolds (BD Biosciences). Scaffolds were surgically implanted subcutaneously into immunodeficient nude mice (Nu/Nu strain; Charles River Laboratories). Local injection of StemPro differentiation medium (described above) was performed in the area of the implants every 72 h for 6 weeks. Scaffolds were cryosectioned and stained with Alizarin Red, Alcian Blue, or Oil Red O as described above. All procedures were reviewed and approved by the Institutional Animal Care and Use Committee at Harvard Medical School.

For experiment [2], the system named is Human umbilical vein endothelial cells (HUVECs) and human cutaneous microvascular endothelial cells (HCMECs). Description: Endothelial-mesenchymal transition (EndMT) in endothelial cells: morphology, marker expression by immunoblotting, flow cytometry, real-time PCR, ELISA. Format: cell-based. To be noted: for FSP-1, α-SMA, and N-cadherin levels (immunoblotting) / VE-cadherin, CD31, and vWF levels (immunoblotting): 10 ng ml−1, 48 h; for EndMT-associated transcription factors Snail, Slug, ZEB-1, SIP-1, LEF-1, Twist (ELISA): 10 ng ml−1, compared to control cells; for FSP-1 and α-SMA levels (immunoblotting) / TIE-2 expression levels (immunoblotting) / VE-cadherin levels (immunoblotting) / co-staining for endothelial marker TIE2 and mesenchymal marker FSP-1 (fluorescence microscopy or flow cytometry) / expression of genes associated with EndMT (FSP-1, α-SMA, N-cadherin, fibronectin, Snail, Slug, ZEB-1, SIP-1, LEF-1, Twist), real-time quantitative PCR / cell morphology (DIC imaging): 10 ng/mL, 48 hours; for expression of genes associated with EndMT (FSP-1, α-SMA, N-cadherin, fibronectin, Snail, Slug, ZEB-1, SIP-1, LEF-1, Twist), real-time quantitative PCR: compared to control cells; for cell morphology (DIC imaging): serum free medium. The protocol:
as §1, §2, §3, §4, §5

Entries after “also recorded” stand apart in the source; their conditions may differ.

For “BMP4: Recombinant BMP4 protein (R&D Systems), ALK2 activating ligand, used at 10 ng/mL”, the “TIE2 levels after 96 h of treatment” value in experiment [1] is “small decrease; also recorded: slight decrease”. Besides, in the experiment on HUVEC and HCMEC, the “STRO-1 and other mesenchymal stem cell markers (immunoblotting)” value was “strongly expressed”; the “co-expression of TIE2 and mesenchymal stem cell marker STRO-1 (immunofluorescence microscopy or flow cytometry)” value is “strong co-expression; also recorded: massive co-expression”; the “expression of mesenchymal stem cell genes CD10, CD13, CD44, CD73, CD90, CD120a, CD124 (real-time quantitative PCR)” value was “greatly increased”. Moreover, in the experiment with Smad2 and Smad5, the Smad5 phosphorylation entry is recorded as “phosphorylated”; the “phosphorylation of Smad2 and Smad5 (immunoblotting)” value is “promoted phosphorylation of both Smad2 and Smad5”. In addition, in the experiment on HUVECs and HCMECs, the “co-expression of Qtracker label with osteocalcin, SOX9 or adiponectin in implants (immunohistochemistry)” value is reported as “co-expression of the Qtracker with osteocalcin, SOX9, or adiponectin” and the “bone, cartilage or fat products in implanted scaffolds (alizarin red, alcian blue, oil red O)” value was “formation of bone, cartilage, or fat products”. In experiment [2], the “effect on EndMT (stimulation)” value is “stimulators of EndMT; also recorded: stimulate EndMT”; the “FSP-1, α-SMA, and N-cadherin levels (immunoblotting)” value is reported as “increased”; the “VE-cadherin, CD31, and vWF levels (immunoblotting)” value is listed as “decreased”; the “EndMT-associated transcription factors Snail, Slug, ZEB-1, SIP-1, LEF-1, Twist (ELISA)” value is given as “much higher”. Moreover, in experiment [2], the “FSP-1 and α-SMA levels (immunoblotting)” value is “increased”; the “TIE-2 expression levels (immunoblotting)” value was “remained unchanged; also recorded: remain constant”; the “VE-cadherin levels (immunoblotting)” value is given as “significantly decreased”; the “co-staining for endothelial marker TIE2 and mesenchymal marker FSP-1 (fluorescence microscopy or flow cytometry)” value is given as “staining for both”. In addition, in experiment [2], the “expression of genes associated with EndMT (FSP-1, α-SMA, N-cadherin, fibronectin, Snail, Slug, ZEB-1, SIP-1, LEF-1, Twist), real-time quantitative PCR” value is listed as “much higher” and the “cell morphology (DIC imaging)” value is listed as “distinct change from cobblestone-like endothelial cell morphology to fibroblast-like morphology”.
With “TGF-β2: Recombinant TGF-β2 protein (R&D Systems), ALK2 activating ligand, used at 10 ng/mL”, the “TIE2 levels after 96 h of treatment” value in experiment [1] is on record as “small decrease; also recorded: slight decrease”. In addition, in the experiment with HUVEC and HCMEC, the “STRO-1 and other mesenchymal stem cell markers (immunoblotting)” value is on record as “strongly expressed”; the “co-expression of TIE2 and mesenchymal stem cell marker STRO-1 (immunofluorescence microscopy or flow cytometry)” value was “strong co-expression; also recorded: massive co-expression”; the “expression of mesenchymal stem cell genes CD10, CD13, CD44, CD73, CD90, CD120a, CD124 (real-time quantitative PCR)” value is “greatly increased”. Besides, in the experiment with Smad2 and Smad5, the Smad5 phosphorylation entry is reported as “phosphorylated”; the “phosphorylation of Smad2 and Smad5 (immunoblotting)” value was “promoted phosphorylation of both Smad2 and Smad5”. In addition, in the experiment on HUVECs and HCMECs, the “co-expression of Qtracker label with osteocalcin, SOX9 or adiponectin in implants (immunohistochemistry)” value is on record as “co-expression of the Qtracker with osteocalcin, SOX9, or adiponectin” and the “bone, cartilage or fat products in implanted scaffolds (alizarin red, alcian blue, oil red O)” value is reported as “formation of bone, cartilage, or fat products”. Besides, in experiment [2], the “effect on EndMT (stimulation)” value is “stimulators of EndMT; also recorded: stimulate EndMT”; the “FSP-1, α-SMA, and N-cadherin levels (immunoblotting)” value is recorded as “increased”; the “VE-cadherin, CD31, and vWF levels (immunoblotting)” value was “decreased”; the “EndMT-associated transcription factors Snail, Slug, ZEB-1, SIP-1, LEF-1, Twist (ELISA)” value was “much higher”. In addition, in experiment [2], the “FSP-1 and α-SMA levels (immunoblotting)” value was “increased”; the “TIE-2 expression levels (immunoblotting)” value is listed as “remained unchanged; also recorded: remain constant”; the “VE-cadherin levels (immunoblotting)” value is on record as “significantly decreased”; the “co-staining for endothelial marker TIE2 and mesenchymal marker FSP-1 (fluorescence microscopy or flow cytometry)” value is on record as “staining for both”. For the same substance, in experiment [2], the “expression of genes associated with EndMT (FSP-1, α-SMA, N-cadherin, fibronectin, Snail, Slug, ZEB-1, SIP-1, LEF-1, Twist), real-time quantitative PCR” value is listed as “much higher” and the “cell morphology (DIC imaging)” value is “distinct change from cobblestone-like endothelial cell morphology to fibroblast-like morphology”. In addition, the “VE-cadherin, FSP-1, CD44, CD90 expression in clonal populations (multiplex ELISA)” value in experiment [2] (three clonal populations of HUVEC and HCMEC, 48 h) is “decreased expression of VE-cadherin and increased expression of FSP-1, CD44, and CD90”.
